According to US20260166122A1, “USE OF MICROPEPTIDE MIAC” (NANJING ANJI BIOTECHNOLOGY CO., LTD, priority 2023, published 2026):
Like-named read-outs stand apart in the source and are kept apart here. Marks after values point to notes of the source that are not given here. Ends that are not written are not given here.

Key:
Format in all cases: cell-based
Settings in all cases: 72 h
[1] = tested on: human bladder cancer cells EJ
Procedure: (§1) Human pancreatic cancer, hepatocellular carcinoma, colorectal cancer, ovarian cancer, cervical cancer, bladder cancer, melanoma, glioblastoma, neuroblastoma, glioma, osteosarcoma, myeloma, lymphoma, hematologic malignancies, and cholangiocarcinoma cells were cultured in an incubator at 37° C. with 5% CO2 until the density reached 90%, then digested and collected with trypsin, resuspended in a culture medium, and counted under a microscope; the cell concentration was adjusted to about 1.0×10^5 cells/mL; and the cell suspension was inoculated into a 96-well plate, with 100 μL per well, and incubated overnight in an incubator at 37° C. with 5% CO2. After the cells were completely attached to the wall, 100 μL of micropeptides MIAC with concentrations of 50 μM, 100 μM and 200 μM were added to form an administration group; and a culture medium without any medicament was used as a negative control group. After continuing incubation for 72 h, 100 μL of CCK8 was added to each well of the 96-well plate for dissolving. The absorbance OD was measured at a detection wavelength of 450 nm with a microplate reader, and the proliferation inhibition (PI) was calculated using the formula of PI (%)=1-administration group/negative control group. The experiment was repeated 3 times independently, the results were expressed as Mean±SD, and a statistical T test was performed, where *P<0.05 indicated a significant difference and **P<0.01 indicated an extremely significant difference.

[2] = tested on: human cerebral astrocytic glioblastoma cells U87-MG
Procedure: as §1

[3] = tested on: human cervical cancer cells Hela
Procedure: as §1

[4] = tested on: human cholangiocarcinoma cells QBC939
Procedure: as §1

[5] = tested on: human colon cancer cells HCT-116
Procedure: as §1

[6] = tested on: human colon cancer cells LOVO
Procedure: as §1

[7] = tested on: human hepatocellular carcinoma cells SMMC-7721
Procedure: as §1

[8] = tested on: human lymphoma cells Raji
Procedure: as §1

[9] = tested on: human malignant melanoma cells A375
Procedure: as §1

[10] = tested on: human malignant melanoma cells SK-mel-2
Procedure: as §1

[11] = tested on: human myeloid leukemia cells HL60
Procedure: as §1

[12] = tested on: human myeloma cells ARP-1
Procedure: as §1

[13] = tested on: human myeloma cells NCI-H929
Procedure: as §1

[14] = tested on: human neuroblastoma cells SH-SY5Y
Procedure: as §1

[15] = tested on: human osteosarcoma cells MG-63
Procedure: as §1

[16] = tested on: human ovarian cancer cells A2780
Procedure: as §1

[17] = tested on: human pancreatic cancer cells MIP-PaCa-2
Procedure: as §1

[18] = tested on: human pancreatic cancer cells PANC-1
Procedure: as §1

[19] = tested on: human breast cancer cells MCF-7
[20] = tested on: human non-small cell lung cancer cells NCI-H1650

MERAGVPGFSPRRSSVEAKMQSTSCSVRKSSTVTAWPAVVLLLSWGQRRGG [MIAC, micropeptide inhibiting actin cytoskeleton]
OD ([1]; 50 μM): 1.126 ± 0.017 | OD ([1]; 100 μM): 0.891 ± 0.009** | OD ([1]; 200 μM): 0.628 ± 0.045** | OD ([2]; 50 μM): 0.951 ± 0.019 | OD ([2]; 100 μM): 0.785 ± 0.029** | OD ([2]; 200 μM): 0.656 ± 0.030** | OD ([3]; 50 μM): 0.954 ± 0.041** | OD ([3]; 100 μM): 0.801 ± 0.039** | OD ([3]; 200 μM): 0.532 ± 0.066** | OD ([4]; QBC939, 50 μM): 1.13 ± 0.053 | OD ([4]; QBC939, 100 μM): 0.757 ± 0.028** | OD ([4]; QBC939, 200 μM): 0.468 ± 0.045** | OD ([5]; HCT-116, 50 μM): 1.253 ± 0.019** | OD ([5]; HCT-116, 100 μM): 0.976 ± 0.038** | OD ([5]; HCT-116, 200 μM): 0.688 ± 0.047** | OD ([6]; 50 μM): 1.148 ± 0.008** | OD ([6]; 100 μM): 0.970 ± 0.021** | OD ([6]; 200 μM): 0.624 ± 0.026** | OD ([7]; SMMC-7721, 50 μM): 1.292 ± 0.012 | OD ([7]; SMMC-7721, 100 μM): 1.032 ± 0.011** | OD ([7]; SMMC-7721, 200 μM): 0.674 ± 0.033** | OD ([8]; 50 μM): 0.964 ± 0.037 | OD ([8]; 100 μM): 0.687 ± 0.019** | OD ([8]; 200 μM): 0.421 ± 0.029** | OD ([9]; A375, 50 μM): 1.310 ± 0.069** | OD ([9]; A375, 100 μM): 1.194 ± 0.043** | OD ([9]; A375, 200 μM): 0.911 ± 0.071** | OD ([10]; SK-mel-2, 50 μM): 1.302 ± 0.043** | OD ([10]; SK-mel-2, 100 μM): 0.822 ± 0.060** | OD ([10]; SK-mel-2, 200 μM): 0.570 ± 0.011** | OD ([11]; HL60, 50 μM): 1.378 ± 0.029** | OD ([11]; HL60, 100 μM): 0.725 ± 0.027** | OD ([11]; HL60, 200 μM): 0.549 ± 0.023** | OD ([12]; ARP-1, 50 μM): 0.985 ± 0.008 | OD ([12]; ARP-1, 100 μM): 0.692 ± 0.047** | OD ([12]; ARP-1, 200 μM): 0.433 ± 0.013** | OD ([13]; NCI-H929, 50 μM): 0.860 ± 0.012** | OD ([13]; NCI-H929, 100 μM): 0.427 ± 0.016** | OD ([13]; NCI-H929, 200 μM): 0.263 ± 0.026** | OD ([14]; 50 μM): 1.033 ± 0.022 | OD ([14]; 100 μM): 0.822 ± 0.108** | OD ([14]; 200 μM): 0.665 ± 0.011** | OD ([15]; MG-63, 50 μM): 1.049 ± 0.011** | OD ([15]; MG-63, 100 μM): 0.691 ± 0.033** | OD ([15]; MG-63, 200 μM): 0.365 ± 0.009** | OD ([16]; A2780, 50 μM): 0.985 ± 0.046** | OD ([16]; A2780, 100 μM): 0.791 ± 0.067** | OD ([16]; A2780, 200 μM): 0.441 ± 0.018** | OD ([17]; MIP-PaCa-2, 50 μM): 0.898 ± 0.035 | OD ([17]; MIP-PaCa-2, 100 μM): 0.866 ± 0.035** | OD ([17]; MIP-PaCa-2, 200 μM): 0.571 ± 0.038** | OD ([18]; PANC-1, 50 μM): 1.027 ± 0.073 | OD ([18]; PANC-1, 100 μM): 0.708 ± 0.043** | OD ([18]; PANC-1, 200 μM): 0.427 ± 0.02** | OD ([19]; MCF-7, 50 μM): 1.281 ± 0.040 | OD ([19]; MCF-7, 100 μM): 0.973 ± 0.027 | OD ([19]; MCF-7, 200 μM): 0.814 ± 0.047 | OD ([20]; NCI-H1650, 50 μM): 1.127 ± 0.022 | OD ([20]; NCI-H1650, 100 μM): 0.955 ± 0.031 | OD ([20]; NCI-H1650, 200 μM): 0.779 ± 0.057
